These are literature values, as cited in patent publication US20110136157A1, “Copper regulation evaluation and therapy” (priority 2005, published 2011).

Structures are written as SMILES. Read-outs that look alike come from different tables or passages of the source.

Series [1] deals with Wilson's disease patients. Conditions: long-term use.

Consider `CC(C)(S)[C@@H](N)C(=O)O` [Penicillamine, 3-mercapto-D-valine], for which the solubility result is “slightly soluble in alcohol” (alcohol) and “freely soluble in water” (water). Regarding `CC(=O)[O-].CC(=O)[O-].[Zn+2]` [Zinc acetate], in series [1], the “long-term or major side effects” value was “has not shown any long-term or major side effects”.
